Test results as given in patent US12528774B2, “Thiosemicarbazone compounds and uses thereof” (The Regents of the University of California, priority 2019, dated 2026).

What was measured:
[1] = system: panel of PDAC, SCLC, and PC cancer models; test: Proliferation assay (CellTiter-Glo) in panel of PDAC, SCLC and PC cancer models; assay type: cell-based, human and mouse; conditions: media with 20 μM CuCl2, 72 h
From the text: (§1) FIG. 1A: IC50 values in a panel of human and mouse prostate cancer (PC)(cell lines CF-2, LNCaP, 22Rv1, RM-1, MyC CaP); small cell lung carcinoma (SCLC)(cell lines NCI-H1963, NCI-H146, NCI-H526); pancreatic ductal adenocarcinoma (PDAC)(CFPAC1, SW1990, HS766T, PANC0203, PANC0813, ASPC1, HPAFII, PATU8902, PANC0327, PANC1, YAPC, L36PL, XWR200, HUPT4, A13A, SUIT2, DAN-G, BxPC3, HPAC, PSN1, SU8686, KP4662, MIAPACA2, PATU8988T); and leukemia (cell lines KG-1, TF-1, Jurkat, MOLT-4, p185-R, MV4-11) models treated with HCT13+Cu(II) (20 μM) for 72 h measured by CellTiterGlo. […] (mean±SD, n=2, one-way ANOVA corrected for multiple comparisons by Bonferroni adjustment, * P<0.05; **P<0.01; ***P<0.001).
Serum copper levels are elevated (>20 μM) in individuals with solid tumor types such as pancreatic ductal adenocarcinoma (PDAC), small cell lung carcinoma (SCLC), and prostate cancer (PC). (Refs. 43-48). These cancers rely upon elevated copper levels to sustain growth, making this transition metal a viable target for therapeutic modulation. (Ref 34). […]
Proliferation assay: Cells were plated in 384-well plates (500 cells/well for adherent cell lines in 30 μl volume). […] Following 72 h incubation, ATP content was measured using CellTiter-Glo reagent according to manufacturer's instructions (Promega, CellTiter-Glo Luminescent Cell Viability Assay), and analyzed by SpectraMax luminometer (Molecular Devices). […]

MIAPACA2 PDAC cells = test: Intracellular copper measurement by ICP-MS; assay type: cell-based, human; conditions: HCT13 25 nM, 24 h, with and without 20 μM Cu(II)
From the text: as §1
The MIAPACA2 cell line, a well-characterized PDAC model that was highly sensitive to HCT13 treatment, was used to further investigate the mechanism of action of our lead compound. MIAPACA2 proliferation was measured in response to HCT13 in the presence and absence of 20 μM CuCl2 (Cu(II)), as well as in response to 20 μM Cu(II) alone (FIG. 1B). […] To probe whether HCT13 was acting as an ionophore, intracellular copper levels were measured using inductively coupled plasma mass spectrometry (ICP-MS). […]
Intracellular Cu(II) measurement. […] The concentration of Cu(II) was measured using Inductive Coupled Plasma Mass Spectrometry (ICP-MS) using standard procedure.

In the case of CN(C)C(=S)N/N=C/c1nccc2cc(F)ccc12 (mixture of isomers) [HCT13, (E)-2-((6-Fluoroisoquinolin-1-yl)methylene)-N,N-dimethylhydrazine-1-carbothioamide and (Z)-2-((6-Fluoroisoquinolin-1-yl)methylene)-N,N-dimethylhydrazine-1-carbothioamide], the “+Cu IC90 range across panel” value [1] is reported as “nanomolar”, the IC90 ([1]; read-out: +Cu IC90 range across panel) is reported as 1 to 200 nM and the intracellular copper levels (MIAPACA2 PDAC cells) is reported as “increased”.
